{"source": "paper PMC6356231", "about": "“Capillasterin A, a Novel Pyrano[2,3-f]chromene from the Australian Crinoid Capillaster multiradiatus” (Marine Drugs, 2019)", "key": {"[1]": {"test_system": "multidrug transporter ABCG2", "set-up": "method as in PMID 20627559", "settings": "cited from earlier work"}, "HIV-1 strain NL4.3": {"test_system": "HIV-1 strain NL4.3", "assay": "multi-cycle HIV-1 replication assay in CEM-GXR GFP-reporter T cells", "format": "cell-based", "settings": "for EC50: read-out: EC50, in vitro HIV-1 replication; for inhibition of HIV-1 replication (in words): CEM-GXR T cell line", "description": "The ability of compounds 1–7 to inhibit HIV-1 replication was evaluated in vitro using an established multi-cycle replication assay. Briefly, the CEM-GXR T cell line, which contains an HIV-1 promoter-driven green fluorescent protein (GFP) reporter, was infected with the full-length, infectious HIV-1 strain NL4.3 at a multiplicity of infection of 0.03 [18]. After 24 hours, cells were washed and subsequently incubated with compounds 1–7, the control HIV inhibitor efavirenz, or 0.1% DMSO vehicle control. GFP expression, a marker of viral replication, was then measured by flow cytometry after 72 hours.\n(§1) The following reagents were obtained from the NIH AIDS Reagent Program: CEM CD4^+ cells (CEM) from Dr. J.P. Jacobs, [23] and pNL4-3 from M. Martin [24]. Efavirenz and panobinostat were purchased from Sigma-Aldrich (St. Louis, MO, USA). CEM and CEM-derived GXR25 GFP-reporter T cells (CEM-GXR; [18]) were cultured in R10+ medium [RPMI-1640 with HEPES and L-Glutamine (Lonza, Basel, Switzerland), 10% fetal calf serum, 100 U of penicillin/mL, and 100 µg of streptomycin/mL Sigma-Aldrich (St. Louis, MO, USA)]. Production of HIV-1 NL4.3 and multi-cycle HIV-1 replication assays were performed as described previously. Apoptosis assays were performed by staining CEM cells with annexin V-APC (BioLegend, San Diego, CA) according to manufacturer instructions."}, "[2]": {"test_system": "GFP-expressing immortalised mouse olfactory ensheathing cells (mOEC)", "assay": "mOEC cell proliferation (resazurin viability) assay", "format": "cell-based", "settings": "10 µM, 24 hours of treatment", "description": "Compounds 1–7 have now been added to the Davis Open-Access Compound Library housed at Compounds Australia, Griffith University, where they are available for collaboration in drug discovery or chemical biology research.\nThe cell proliferation assay was performed according to the method described by Chen et al., with modification. Briefly, GFP-expressing immortalised mouse OECs (mOEC) were seeded at 2000 cells/well in a 384-well microplate (Greiner Bio-One, Kremsmünster, Austria) with a Multidrop™ Combi Reagent Dispenser (Thermo Fisher Scientific, Waltham, MA, USA) using the BioCel Automation System (Agilent Technologies, Santa Clara, CA, USA) and incubated overnight at 37 °C under 5% CO2. After 24 hours, the cells were treated with 4 different concentrations of pure compounds (10, 1, 0.1 and 0.01 µM). 0.2% DMSO was used as negative control. Plates were incubated for 24 hours at 37 °C under 5% CO2. Cell viability of mOECs was measured by adding 5 µL of resazurin (500 μM, Sigma-Aldrich, Sydney, Australia) to the cells and incubated in dark for 4 hours at 37 °C under 5% CO2. The dehydrogenase enzymes found in metabolically active cells will convert resazurin to resofurin products that are soluble in culture medium. The fluorescent resofurin products produced by the viable cells are quantified using an EnVision™ Multilabel (PerkinElmer, Waltham, MA, USA) plate reader at 535/595nm. After that, the cells were fixed and stained with Hoechst (Thermo Fisher Scientific, Waltham, MA, USA) and stored at 4 °C prior to imaging. Cells were imaged automatically using Operetta™ (PerkinElmer, Waltham, MA, USA). Individual cell segmentation and cell count were performed using the Harmony 3.5.2® software."}, "CEM cells": {"test_system": "CEM cells", "assay": "apoptosis (annexin V-APC) cellular toxicity assay in CEM cells", "format": "cell-based", "settings": "72 hours", "description": "Compounds 1–7 were further assessed for cellular toxicity in CEM cells, the parental cell line of CEM-GXR. After 72 hours’ treatment with compounds, toxicity was assessed by measuring the surface expression of the early apoptotic marker annexin V by flow cytometry (by staining with annexin V-APC). […] In contrast, no increase in apoptosis was observed up to 100 µM for compounds 1–7, with the exception of compound 2, which induced 1.4 ± 0.2 and 2.2 ± 0.4-fold increases at 30 and 100 µM, respectively.\nas §1"}, "[3]": {"assay": "compound stability (observation)", "format": "physicochemical"}, "[4]": {"settings": "Human immunodeficiency virus 1, CEM-GXR T cells, HIV-1 NL4.3, MOI 0.03, GFP by flow cytometry after 72 hours, mean ± s.d. of three independent experiments"}}, "note": "Like-named read-outs stand apart in the source and are kept apart here.", "data": [{"molecule": "CCCc1cc(=O)c2c(O)c3c(OC)cc(O)cc3c(OC)c2o1", "values": [{"measurement": "inhibition of ABCG2 (in words)", "setting": "[1]", "result": "inhibit"}]}, {"molecule": "CCCc1cc(=O)c2c(cc(C(C)=O)c3c(OC)cc(=O)oc32)o1", "note": "[Compound 1, 5-acetyl-4-methoxy-8-propylpyrano[2,3-f]chromene-2,10-dione]", "values": [{"measurement": "EC50", "setting": "HIV-1 strain NL4.3; [4]", "result": "> 100", "unit": "µM"}, {"measurement": "increase in mOEC viability (in words)", "setting": "[2]", "result": "none of the compounds showed a significant increase"}]}, {"molecule": "CCCc1cc(=O)c2c(O)cc3cc(O)cc(OC)c3c2o1", "note": "[Compound 2, comaparvin]", "values": [{"measurement": "fold increase in activity as compared to 5", "setting": "HIV-1 strain NL4.3; HIV-1 replication EC50, angular vs linear naphthopyrone", "result": "approximately 2.0 fold"}, {"measurement": "EC50", "setting": "HIV-1 strain NL4.3; [4]", "result": "7.5 ± 1.7", "unit": "µM"}, {"measurement": "fold increase in apoptotic cells relative to 0.1% DMSO", "setting": "CEM cells; 30 µM", "result": "1.4 ± 0.2", "unit": "fold"}, {"measurement": "fold increase in apoptotic cells relative to 0.1% DMSO", "setting": "CEM cells; 100 µM", "result": "2.2 ± 0.4", "unit": "fold"}]}, {"molecule": "COc1cc(O)cc2cc(O)c3c(=O)cc(C)oc3c12", "note": "[Compound 3, TMC-256C1]", "values": [{"measurement": "inhibition of HIV-1 replication (in words)", "setting": "HIV-1 strain NL4.3", "result": "weaker but consistent antiviral activity"}, {"measurement": "fold reduction in activity compared to 2", "setting": "HIV-1 strain NL4.3; HIV-1 replication EC50, methyl instead of propyl at C-2", "result": 3.4, "unit": "fold"}, {"measurement": "EC50", "setting": "HIV-1 strain NL4.3; [4]", "result": "25.5 ± 3.4", "unit": "µM"}]}, {"molecule": "CCCc1cc(=O)c2c(OC)c(OC)c3cc(O)cc(OC)c3c2o1", "note": "[Compound 4, 6-methoxycomaparvin-5-methyl ether]", "values": [{"measurement": "EC50", "setting": "HIV-1 strain NL4.3; [4]", "result": "14.5 ± 5.8", "unit": "µM"}, {"measurement": "increase in mOEC viability (in words)", "setting": "[2]", "result": "none of the compounds showed a significant increase"}]}, {"molecule": "CCCc1cc(=O)c2c(O)c3c(OC)cc(O)cc3cc2o1", "note": "[Compound 5, 5,8-dihydroxy-6-methoxy-2-propyl-4H-naphtho[2,3-b]pyran-4-one]", "values": [{"measurement": "EC50", "setting": "HIV-1 strain NL4.3; [4]", "result": "15.6 ± 6.5", "unit": "µM"}]}, {"molecule": "CCCc1cc(=O)c2c(O)c3c(OC)cc(O)cc3c(OC)c2o1", "note": "[Compound 6, 5,8-dihydroxy-6,10-dimethoxy-2-propyl-4H-naphtho[2,3-b]pyran-4-one]", "values": [{"measurement": "EC50", "setting": "HIV-1 strain NL4.3; [4]", "result": "20.2 ± 4.9", "unit": "µM"}]}, {"molecule": "COc1cc(O)cc2cc3oc(C)cc(=O)c3c(O)c12", "note": "[Compound 7, TMC-256A1]", "values": [{"measurement": "inhibition of HIV-1 replication (in words)", "setting": "HIV-1 strain NL4.3", "result": "no detectable activity"}, {"measurement": "EC50", "setting": "HIV-1 strain NL4.3; [4]", "result": "> 100", "unit": "µM"}, {"measurement": "increase in mOEC viability (in words)", "setting": "[2]", "result": "none of the compounds showed a significant increase"}]}, {"molecule": "CCCc1cc(=O)c2c(O)c(OC)c3cc(O)cc(OC)c3c2o1", "note": "[Compound 8, 6-methoxycomaparvin]", "values": [{"measurement": "stability (in words)", "setting": "[3]", "result": "unstable"}]}, {"molecule": "O=C1Nc2ccc(Cl)cc2[C@@](C#CC2CC2)(C(F)(F)F)O1", "note": "[Efavirenz, reference compound]", "values": [{"measurement": "EC50", "setting": "HIV-1 strain NL4.3; Human immunodeficiency virus 1, CEM-GXR, 72 h", "result": "0.0025 ± 0.0019", "unit": "µM"}]}, {"molecule": "COc1cc(O)cc2cc3oc(C)cc(=O)c3c(O)c12", "note": "[TMC-256A1]", "values": [{"measurement": "inhibition of ABCG2 (in words)", "setting": "[1]", "result": "inhibit"}]}, {"molecule": "Cc1[nH]c2ccccc2c1CCNCc1ccc(/C=C/C(=O)NO)cc1", "note": "[panobinostat, reference compound]", "values": [{"measurement": "fold increase in apoptotic cells relative to 0.1% DMSO", "setting": "CEM cells; 3 µM", "result": "4.2 ± 1.8", "unit": "fold"}]}]}
